Reference: article PMC2992812 (The Biochemical journal, 2010)
One block for each compound: values may come before it.

Legend:
TRHR [1] = target: T1, TRHR (Rattus norvegicus, UniProt Q01717); experiment: Receptor internalization assay; assay type: cell-based; conditions: 100 nM TRH, after 1 h, HEK-293
T1 sequence (Q01717 1-412): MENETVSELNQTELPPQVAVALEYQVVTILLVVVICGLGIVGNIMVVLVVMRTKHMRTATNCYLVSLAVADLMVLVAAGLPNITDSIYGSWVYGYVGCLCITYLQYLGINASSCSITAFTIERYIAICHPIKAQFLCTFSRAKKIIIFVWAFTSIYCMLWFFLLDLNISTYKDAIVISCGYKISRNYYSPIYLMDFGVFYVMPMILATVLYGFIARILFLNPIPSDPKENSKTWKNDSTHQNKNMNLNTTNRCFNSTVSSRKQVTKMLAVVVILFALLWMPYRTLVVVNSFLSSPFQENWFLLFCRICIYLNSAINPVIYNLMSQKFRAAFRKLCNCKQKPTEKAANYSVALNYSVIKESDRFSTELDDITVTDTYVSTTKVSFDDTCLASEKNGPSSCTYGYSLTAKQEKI

TRHR [2] = target: T1, TRHR; experiment: Fixed-cell ELISA, GRK site phosphorylation/dephosphorylation of TRHR tail; assay type: cell-based; conditions: EC50 (GRK site phosphorylation)
TRHR–β2AR chimaera [3] = target: T2, TRHR–β2AR chimaera (Rattus norvegicus, UniProt Q01717); experiment: Receptor internalization assay; assay type: cell-based, rat TRHR / human β2AR; conditions: 100 nM TRH, after 1 h, HEK-293
T2 sequence (Q01717 1-337): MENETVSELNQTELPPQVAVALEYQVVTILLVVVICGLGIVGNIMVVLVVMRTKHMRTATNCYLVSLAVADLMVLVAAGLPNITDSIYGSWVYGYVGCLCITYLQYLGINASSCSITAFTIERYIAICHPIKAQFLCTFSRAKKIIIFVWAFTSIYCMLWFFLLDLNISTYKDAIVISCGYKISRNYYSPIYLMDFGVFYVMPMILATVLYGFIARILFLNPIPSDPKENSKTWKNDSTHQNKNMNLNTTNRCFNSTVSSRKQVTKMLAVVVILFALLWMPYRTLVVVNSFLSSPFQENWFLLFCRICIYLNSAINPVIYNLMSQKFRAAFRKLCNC

β2AR = β2AR (Homo sapiens, UniProt P07550); experiment: Fixed-cell ELISA, PKA site; assay type: cell-based; conditions: 10 μM H89 pre-incubated 30 min and during 5 min with 1 μM isoprenaline
β2AR–TRHR chimaera = experiment: Receptor internalization assay; assay type: cell-based, human β2AR / rat TRHR; conditions: stable HEK-293
TRHR–β2AR chimaera [4] = target: T2, TRHR–β2AR chimaera; experiment: [methyl-3H]TRH binding to live cells; set-up: species or system rat TRHR / human β2AR; conditions: HEK-293, 90 min at 37°C, Scatchard analysis

Chain of β2AR (P07550 whole entry): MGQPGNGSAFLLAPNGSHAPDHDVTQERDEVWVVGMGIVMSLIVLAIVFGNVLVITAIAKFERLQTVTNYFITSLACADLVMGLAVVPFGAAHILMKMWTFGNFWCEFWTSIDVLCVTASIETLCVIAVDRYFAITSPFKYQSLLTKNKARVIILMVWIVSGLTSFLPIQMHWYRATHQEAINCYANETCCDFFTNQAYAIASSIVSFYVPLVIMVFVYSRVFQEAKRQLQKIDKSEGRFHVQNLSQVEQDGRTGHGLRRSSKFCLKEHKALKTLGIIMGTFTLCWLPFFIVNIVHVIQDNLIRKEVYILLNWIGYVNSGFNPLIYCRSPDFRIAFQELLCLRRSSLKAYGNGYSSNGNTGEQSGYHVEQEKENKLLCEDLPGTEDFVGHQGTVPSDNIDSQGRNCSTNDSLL

Receptor internalized (TRHR [1]): 60%
EC50 (TRHR [2]): 8 nM
Receptor internalized (TRHR–β2AR chimaera [3]): 40%
Compound: NC(=O)[C@@H]1CCCN1C(=O)[C@H](Cc1cnc[nH]1)NC(=O)[C@@H]1CCC(=O)N1 [TRH, thyrotropin-releasing hormone]

Compound: O=S(=O)(NCCNC/C=C/c1ccc(Br)cc1)c1cccc2cnccc12 [H89]
Inhibition of isoprenaline-stimulated PKA site phosphorylation (β2AR): 80%

Compound: CC(C)NCC(O)c1ccc(O)c(O)c1 (stereo not drawn) [isoprenaline]
More internalization at 1 μM than at 1 nM isoprenaline (β2AR–TRHR chimaera): 2 fold

Affinity for [methyl-3H]TRH compared with wild-type TRHR (TRHR–β2AR chimaera [4]): reduced affinity
Compound: [methyl-3H]TRH
